# Measurements as given in patent publication US20220411362A1, “DITERPENOID COMPOUNDS THAT ACT ON PROTEIN KINASE C (PKC)” (K-Gen, Inc., priority 2019, published 2022).
# Where two headings read alike, the source gives them in different places.
# How the values were obtained:
# [1] = system: phosphorylation of PKCμ, PKCδ and Erk1/2 in A549 lung cancer cells; assay type: cell-based; conditions: 0.3 μM, 30 minutes, Western blot (FIG. 1)
# Experimental: Cells were then treated with different drugs at indicated concentrations for 30 minutes. […] Imagequant LAS4000 (GE) was used to scan membranes if secondary antibodies anti-mouse IgG HRP conjugate or anti-rabbit IgG HRP conjugate (dilutions from 1:2000-1:10000) were used. For ProteinSimple Wes system, manufacture's procedure was followed (ProteinSimple 12-230 kDa Wes Separation Module) for sample preparation, loading, running, and data analysis.
# Phosphorylation of these sites has been linked to acute activation or catalytic activity of the PKC isoforms and Erk1/2. High level of phosphorylation indicates strong activation.
# [2] = Pharmacokinetic study, intravenous bolus injection in rats; assay type: in vivo; conditions: Sprague Dawley; for concentration at 0.0167 hour / concentration at 0.0833 hour / concentration at 0.25 hour / concentration at 0.5 hour / concentration at 1 hour / concentration at 2 hour / concentration at 4 hour / concentration at 7 hour / concentration at 24 hour / Vd: plasma, rat; for concentration at 0.0167 hour: 0.0167 hour post dose; for concentration at 0.0167 hour / concentration at 0.0833 hour / concentration at 0.25 hour / concentration at 0.5 hour / concentration at 1 hour / concentration at 2 hour / concentration at 4 hour / concentration at 7 hour / concentration at 24 hour: read-out: Concentration in Rat Plasma after Bolus Injection, Mean; for concentration at 0.0833 hour: 0.0833 hour post dose; for concentration at 0.25 hour: 0.25 hour post dose; for concentration at 0.5 hour: 0.5 hour post dose; for concentration at 1 hour: 1 hour post dose; for concentration at 2 hour: 2 hour post dose; for concentration at 4 hour: 4 hour post dose; for concentration at 7 hour: 7 hour post dose; for concentration at 24 hour: 24 hour post dose; for AUC(0-t) / C0 / MRT inf / clearance / half-life / Vd: rat plasma; for Vd: iv
# Experimental: Pharmacokinetic (PK) studies were conducted for compounds described in this disclosure, and the PK study of K101-C1327 administered by intravenous injection in rats is given as an example. Briefly, K101-C1327 was dissolved in a pH 5 buffer solution at the concentrations of 2.0 mg/mL, and diluted to 0.04 and 0.08 mg/mL to achieve the doses of 0.1 and 0.2 mg/kg with a dosing volume of 2.5 mL/kg, respectively. The K101-C1327 dosing solutions were administered via intravenous bolus injection in 3 rats (Sprague Dawley). Plasma samples were taken at 1 minute, 5 minutes, 15 minutes, 30 minutes, 1 hour, 2 hours, 4 hours, 7 hours, and 24 hours. The drug concentrations at each time point were determined by LC-MS. The results of drug concentrations and pharmacokinetic parameters are presented in the Table 6 and Table 7, respectively, below.
smiles,measurement,setting,value
CC1=C[C@H]2[C@@]3(O)[C@H](C)C[C@]4(OC(=O)[C@@H](N)CC5CCCCC5)[C@H]([C@@H]3C=C(CO)C[C@]2(O)C1=O)C4(C)C [Compound K101-C1327],"phosphorylation of PKC (PKD/PKCμ), PKCδ and Erk1/2",[1],induced high levels of phosphorylation
same,concentration at 0.0167 hour,[2]; dose 0.1 mg/kg,216 ng/mL
same,concentration at 0.0833 hour,[2]; dose 0.1 mg/kg,49.2 ng/mL
same,concentration at 0.25 hour,[2]; dose 0.1 mg/kg,28.7 ng/mL
same,concentration at 0.5 hour,[2]; dose 0.1 mg/kg,19.4 ng/mL
same,concentration at 1 hour,[2]; dose 0.1 mg/kg,14.6 ng/mL
same,concentration at 2 hour,[2]; dose 0.1 mg/kg,5 ng/mL
same,concentration at 4 hour,[2]; dose 0.1 mg/kg,1 ng/mL
same,concentration at 7 hour,[2]; dose 0.1 mg/kg,< 1 ng/mL
same,concentration at 24 hour,[2]; dose 0.1 mg/kg,< 1 ng/mL
same,concentration at 0.0167 hour,[2]; dose 0.2 mg/kg,334 ng/mL
same,concentration at 0.0833 hour,[2]; dose 0.2 mg/kg,102 ng/mL
same,concentration at 0.25 hour,[2]; dose 0.2 mg/kg,65 ng/mL
same,concentration at 0.5 hour,[2]; dose 0.2 mg/kg,43.6 ng/mL
same,concentration at 1 hour,[2]; dose 0.2 mg/kg,37.6 ng/mL
same,concentration at 2 hour,[2]; dose 0.2 mg/kg,29.1 ng/mL
same,concentration at 4 hour,[2]; dose 0.2 mg/kg,6 ng/mL
same,concentration at 7 hour,[2]; dose 0.2 mg/kg,< 1 ng/mL
same,concentration at 24 hour,[2]; dose 0.2 mg/kg,< 1 ng/mL
same,AUC(0-t),[2]; 0.1 mg/kg,48.3 ng·h/mL
same,C0,[2]; 0.1 mg/kg,314 ng/mL
same,MRT inf,[2]; 0.1 mg/kg,0.873 h
same,clearance,[2]; 0.1 mg/kg,32.9 mL/min/kg
same,half-life,[2]; 0.1 mg/kg,0.857 h
same,AUC(0-t),[2]; 0.2 mg/kg,119 ng·h/mL
same,C0,[2]; 0.2 mg/kg,450 ng/mL
same,MRT inf,[2]; 0.2 mg/kg,2.93 h
same,clearance,[2]; 0.2 mg/kg,21.5 mL/min/kg
same,half-life,[2]; 0.2 mg/kg,2.29 h
same,Vd,"[2]; 0.1 mg/kg, 0.1 mg/kg, read-out: Vss",1.73 L/kg
same,Vd,"[2]; 0.1 mg/kg, 0.1 mg/kg, read-out: Vz",2.44 L/kg
same,Vd,"[2]; 0.2 mg/kg, 0.2 mg/kg, read-out: Vss",2.77 L/kg
same,Vd,"[2]; 0.2 mg/kg, 0.2 mg/kg, read-out: Vz",3.25 L/kg
